Measured values published in US10941121B2 (AZIENDA OSPEDALIERA UNIVERSITARIA SENESE, priority 2015, dated 2021).
Like-named read-outs stand apart in the source and are kept apart here.

Assays:
[1] = test system: Hepatitis C Virus (HCV) replicon system; test: HCV replicon system, luciferase method in LucUbiNeo-ET cells; settings: for EC50: Hepatitis C virus, 48 h, read-out: EC50 (μM) HCV replicon system
[2] = Cytotoxicity in the JEV cell culture system; settings: hamster
[3] = Cytotoxicity, MTT method in LUNET cells; assay type: cell-based; settings: human; MMT method in LUNET cells; read-out: CC50 (μM) non-infected cells
Method: Toxicity (CC50) was analysed in the Lunet/HuH7 cells by the addition of 10 μL of MTT (3-(4,5-dimethylthiazol-2-yl)-2,5-diphenyltetrazolium bromide) per well. After 4 h of incubation at 37° C. in a humidified atmosphere with 5% CO2, the amount of formazan produced was quantified spectrophotometrically at 550/620 nm (C. Pannecouque et al, Nature protocol 2008; 3 (3): 427-434). […] These assays were done in duplicate.

[4] = biological target: T1, DDX3 Helicase (Homo sapiens, UniProt O00571); test: biochemical
T1 sequence (O00571 whole entry): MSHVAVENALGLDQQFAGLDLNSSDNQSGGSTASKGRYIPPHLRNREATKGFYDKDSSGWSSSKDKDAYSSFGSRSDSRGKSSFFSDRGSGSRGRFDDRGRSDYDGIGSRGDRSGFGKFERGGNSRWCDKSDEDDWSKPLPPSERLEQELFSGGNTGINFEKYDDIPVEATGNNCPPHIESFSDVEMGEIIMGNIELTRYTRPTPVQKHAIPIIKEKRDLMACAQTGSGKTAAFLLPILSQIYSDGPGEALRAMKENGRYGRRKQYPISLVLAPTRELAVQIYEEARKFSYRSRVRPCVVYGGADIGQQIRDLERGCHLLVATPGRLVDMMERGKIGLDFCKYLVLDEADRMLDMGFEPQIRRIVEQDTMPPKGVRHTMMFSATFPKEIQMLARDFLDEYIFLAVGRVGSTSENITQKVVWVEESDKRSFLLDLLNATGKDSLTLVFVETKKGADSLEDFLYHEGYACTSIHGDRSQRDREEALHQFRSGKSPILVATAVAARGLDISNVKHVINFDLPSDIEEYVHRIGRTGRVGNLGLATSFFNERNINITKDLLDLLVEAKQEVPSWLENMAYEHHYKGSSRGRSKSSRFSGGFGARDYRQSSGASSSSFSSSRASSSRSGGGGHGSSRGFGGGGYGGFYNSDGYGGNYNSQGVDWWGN

[5] = test system: JEV strain (NJ2008); test: JEV infectious cell culture system, plaque formation assay in BHK-21 cells; settings: Japanese encephalitis virus, BHK-21, read-out: JEV EC50
[6] = Water Solubility Assay; assay type: physicochemical; settings: thermodynamic from solid
Method: Water Solubility Assay. Each solid compound (1 mg) was added to 1 mL of water. The samples were shaked in a shaker bath at room temperature for 24-36 h. The suspensions were filtered through a 0.45 μm nylon filter (Acrodisc), and the solubilized compound determined by LC-MS-MS assay. For each compound the determination was performed in triplicate.
For the quantification was used an LC-MS system consisted of a Varian apparatus (Varian Inc) including a vacuum solvent degassing unit, two pumps (212-LC), a Triple Quadrupole MSD (Mod. 320-LC) mass spectrometer with ES interface and Varian MS Workstation System Control Vers. 6.9 software. […] The flow rate was 0.2 mL min^−1 and injection volume was 5 μL. The instrument operated in positive mode and parameters were: detector 1850 V, drying gas pressure 25.0 psi, desolvation temperature 300.0° C., nebulizing gas 40.0 psi, needle 5000 V and shield 600 V. Nitrogen was used as nebulizer gas and drying gas. Collision induced dissociation was performed using Argon as the collision gas at a pressure of 1.8 mTorr in the collision cell.

[7] = Parallel Artificial Membrane Permeability Assay (PAMPA); assay type: in vitro ADME; settings: for Papp at 5 h, 0.5 mM: PAMPA, phosphatidylcholine in dodecane, pH 7.4, 5 h, room temperature, read-out: PAMPA Papp *10^−6 (cm/s) GI; for PAMPA membrane retention (RM %): value in brackets in the PAMPA cell
Method: Parallel Artificial Membrane Permeability Assay (PAMPA). Donor solution (0.5 mM) was prepared by diluting 1 mM dimethylsulfoxide (DMSO) compound stock solution using phosphate buffer (pH 7.4, 0.025 M). Filters were coated with 5 μL of a 1% (w/v) dodecane solution of phosphatidylcholine prepared from CHCl3 solution 10% w/v, for intestinal permeability. Donor solution (150 μL) was added to each well of the filter plate. To each well of the acceptor plate were added […] (50% DMSO in phosphate buffer). All compounds were tested in three different plates on different days. The sandwich was incubated for 5 h at room temperature under gentle shaking. After the incubation time, the plates were separated, and samples were taken from both receiver and donor sides and analyzed using LC with UV detection at 280 nm.
LC analysis were performed with a Varian Prostar HPLC system (Varian Analytical Instruments, USA) equipped with a binary pump with a manual injection valve and model Prostar 325 UV-VIS Detector.
Permeability (Papp) for PAMPA was calculated according to the following equation, obtained from Wohnsland and Faller and Sugano et al. equation with some modification in order to obtain permeability values in cm s^−1,
where VA is the volume in the acceptor well, VD is the volume in the donor well (cm^3), A is the “effective area” of the membrane (cm^2), t is the incubation time (s) and r the ratio between drug concentration in the acceptor and equilibrium concentration of the drug in the total volume (VD+VA). Drug concentration is estimated by using the peak area integration.
Membrane retentions (%) were calculated according to the following equation: […]
where r is the ratio between drug concentration in the acceptor and equilibrium concentration, D, A, and Eq represented drug concentration in the donor, acceptor and equilibrium solution, respectively.

[8] = test system: human liver microsome (HLM); test: Microsomal Stability Assay; settings: human liver microsomes, 37 °C, 60 min, compound 50 μM; percentage of not metabolized compound
[9] = test system: HIV-1 wild-type reference strain NL4-3; test: HIV-1 phenotypic assay, MT-2 cells then TZM-bl cells, luciferase; assay type: cell-based; settings: Human immunodeficiency virus 1, NL43; first cycle in MT-2 cells, additional round in TZM-bl cells
[10] = test system: HIV (PBMC); test: HIV infectious cell culture system in PBMC, HIV-1 RNA in supernatant; settings: Human immunodeficiency virus 1, PBMC, 72 h, read-out: EC50 HIV (PBMC) 72 h
[11] = Cytotoxicity in PBMC, CellTiter 96 MTS viability assay; assay type: cell-based; settings: human, human primary PBMCs
[12] = test system: EBOV expressing GFP (EBOV/GFP); assay type: cell-based, Ebola virus
[13] = biological target: T1, DDX3 Helicase; settings: for IC50: read-out: ID50 (μM) against DDX3 Helicase, n.a. = compound not active
[14] = Cytotoxicity in Huh7 cells, nuclei counts; settings: human
[15] = experimental aqueous solubility, read-out: LogS (converted)
[16] = room temperature, 24-36 h, read-out: Aq. Solub.

Compound	EC50 [1] [µM]	CC50 [2] [µM]	CC50 [3] [µM]	IC50 [4] [µM]	EC50 [5] [µM]	EC50 [9] [µM]	also measured
CCOCc1cn(-c2ccc(NC(=O)Nc3ccccc3C)cc2)nn1 [Compound 20e]	8.55	> 50	51.8	0.94	25	–	–
CCCCn1nnc(-c2ccc(NC(=O)Nc3ccccc3C)cc2)n1 [Compound 49, 1-(4-(2-butyl-2H-tetrazol-5-yl)phenyl)-3-(o-tolyl)urea]	7.16	> 50	11.2	4.9	7.1	5.2	solubility [6, 15]: < 0.00316 µM; solubility [6, 16]: < 0.001 µg/mL; Papp at 5 h, 0.5 mM [7]: 7.57 ×10⁻⁶ cm/s; PAMPA membrane retention (RM %) [7]: 24.8%; Metabolic stability (Sability %) [8]: 95.6%; EC50 [10]: 9.5 µM; CC50 at 24 h [11]: > 1000 µM; CC50 at 48 h [11]: > 1000 µM; CC50 at 72 h [11]: > 1000 µM
CCCCn1nnc(-c2ccc(NC(=O)Nc3ccccc3C(F)(F)F)cc2)n1 [Compound 51, 1-(4-(2-butyl-2H-tetrazol-5-yl)phenyl)-3-(2-(trifluoromethyl)phenyl)urea]	0.6	–	6.7	0.8	–	5.5	Normalized % infected cells [12]: 60%; effect on EBOV replication, in words [12]: able to affect EBOV replication
CC(C)CCc1cn(-c2ccc(NC(=O)Nc3cccc(F)c3)cc2)nn1 [Compound 55b, 1-(3-fluorophenyl)-3-(4-(4-isopentyl-1H-1,2,3-triazol-1-yl)phenyl)urea]	0.2	–	183	–	–	1.8	activity against HCV, in words [1]: best activity; DDX3 helicase activity compared with EI01D ([13]; in words): approximately ten-fold more active; IC50 [13]: 0.2 µM
CCOCc1cn(-c2ccc(NC(=O)Nc3cc(C(C)C)ccc3C)cc2)nn1 [Compound 55e, 1-(4-(4-(ethoxymethyl)-1H-1,2,3-triazol-1-yl)phenyl)-3-(5-isopropyl-2-methylphenyl) urea]	1	> 50	245	0.9	3.3	–	–
CC(C)CCc1cn(-c2ccc(NC(=O)Nc3cccc4cnccc34)cc2)nn1 [Compound 55f, 1-(4-(4-isopentyl-1H-1,2,3-triazol-1-yl)phenyl)-3-(isoquinolin-5-yl)urea]	0.9	> 50	> 312	0.5	32.8	–	–
CCCCc1cn(-c2ccc(NC(=O)Nc3cc(OC4CCCC4)ccc3C)cc2)nn1 [Compound 55h, 1-(4-(4-butyl-1H-1,2,3-triazol-1-yl)phenyl)-3-(5-(cyclopentyloxy)-2-methylphenyl)urea]	–	–	–	0.1	–	16.2	–
CCOCc1cn(-c2ccc(NC(=O)Nc3cccc(F)c3)cc2)nn1 [Compound 55o, 1-(4-(4-(ethoxymethyl)-1H-1,2,3-triazol-1-yl)phenyl)-3-(3-fluorophenyl)urea]	–	–	–	–	–	21.2	–
O=[N+]([O-])c1cccc(S(=O)(=O)Nc2ccccc2O)c1 [Compound 58a, N-(2-hydroxy)-3-nitro-phenylbenzenesulfonamide]	204	> 50	215	0.37	10	20.2	CC50 at 48 h ([14]; DENV CC50, Huh7 cells, DENV experiment): 99.4 µM; CC50 at 48 h ([14]; WNV CC50, Huh7 cells, WNV experiment): 60.9 µM
CCOCc1cn(-c2cccc(S(=O)(=O)Nc3ccccc3C(F)(F)F)c2)nn1 [Compound 66d, 3-(4-(ethoxymethyl)-1H-1,2,3-triazol-1-yl)-N-(2-(trifluoromethyl)phenyl) benzenesulfonamide]	> 58.6	> 50	58.6	–	6.1	–	EC50 [10]: 26 µM; CC50 at 24 h [11]: 450 µM; CC50 at 48 h [11]: 357 µM; CC50 at 72 h [11]: 703 µM; IC50 [13]: 0.4 µM; Normalized % infected cells [12]: 80%; effect on EBOV replication, in words [12]: able to affect EBOV replication
COc1cc(NC(=O)Nc2ccccc2C(F)(F)F)ccc1-n1cc(CCC(C)C)nn1 [Compound 80, 1-(4-(4-isopentyl-1H-1,2,3-triazol-1-yl)-3-methoxyphenyl)-3-(2-(trifluoromethyl)phenyl)urea]	–	–	–	0.4	–	7.35	–
CCCCc1cn(-c2ccc(NC(=O)Nc3ccccc3C(F)(F)F)cc2F)nn1 [Compound 81, 1-(4-(4-butyl-1H-1,2,3-triazol-1-yl)-3-fluorophenyl)-3-(2-(trifluoromethyl)phenyl)urea]	1.99	–	74.2	1	–	–	solubility [6, 15]: 0.398 µM; solubility [6, 16]: 80.1 µg/mL; Papp at 5 h, 0.5 mM [7]: 7.22 ×10⁻⁶ cm/s; PAMPA membrane retention (RM %) [7]: 30.4%; Metabolic stability (Sability %) [8]: 94%
CC(C)CCc1cn(-c2ccc(NC(=O)Nc3ccccc3C(F)(F)F)cn2)nn1 [Compound 86, 1-(6-(4-isopentyl-1H-1,2,3-triazol-1-yl)pyridin-3-yl)-3-(2-(trifluoromethyl)phenyl)urea]	–	–	–	1	–	3	–
CCCCc1cc(-c2ccc(NC(=O)Nc3ccccc3C(F)(F)F)cc2)no1 [Compound 102, 1-(4-(5-butylisoxazol-3-yl)phenyl)-3-(2-(trifluoromethyl)phenyl)urea]	–	–	–	–	–	72.8	–
CCCCc1nc(-c2ccc(NC(=O)Nc3ccccc3C(F)(F)F)cc2)no1 [Compound 106, 1-(4-(5-butyl-1,2,4-oxadiazol-3-yl)phenyl)-3-(2-(trifluoromethyl)phenyl)urea]	–	–	–	0.1	–	2.2	–
CCCCc1nnc(-c2ccc(NC(=O)Nc3ccccc3C(F)(F)F)cc2)o1 [Compound 112, 1-(4-(5-butyl-1,3,4-oxadiazol-2-yl)phenyl)-3-(2-(trifluoromethyl)phenyl)urea]	–	–	–	1	–	5.5	–
CCCCc1nc(-c2cccc(S(=O)(=O)Nc3ccccc3C(F)(F)F)c2)no1 [Compound 134, 3-(5-butyl-1,2,4-oxadiazol-3-yl)-N-(2-(trifluoromethyl)phenyl)benzenesulfonamide]	–	–	–	1	–	3.1	–
